Legend:
[1] = Metabolic stability in human liver microsomes (in vitro t1/2); type: in vitro ADME; details: human liver microsomes 0.5 mg/mL, 2 μM compound; for Human microsome % 60 min: % remaining at 60 min
How it was run: (§1)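 Liver microsomes (0.5 mg/mL final) were incubated with 2 μM test compound in the presence of NADPH, with aliquots taken at 0, 15, 30, 45 and 60 min. Parent remaining was quantified by LC-MS/MS. k was taken from the slope of ln(% remaining) versus time, and t1/2 = −0.693/k.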

[2] = Metabolic stability in rat liver microsomes (in vitro t1/2); type: in vitro ADME; details: rat liver microsomes 0.5 mg/mL, 2 μM compound; for Rat microsome % 60 min: % remaining at 60 min
How it was run: as §1

[3] = Metabolic stability in mouse liver microsomes (in vitro t1/2); type: in vitro ADME; details: mouse liver microsomes 0.5 mg/mL, 2 μM compound; for Mouse microsome % 60 min: % remaining at 60 min; for Mouse microsome t1/2, min: in vitro t1/2
How it was run: as §1

[4] = Pharmacokinetic assay in mouse (IV 3 mg/kg, PO 10 mg/kg); type: in vivo; details: male, CD1, mouse, plasma, read-out: Mouse F (%)
Source text: (§2) Pharmacokinetic Assays in Mouse and Rat
(§3) The following are assays that may be used to evaluate the pharmacokinetic properties of Formula (I) in mouse or rat. The assays follow a common procedure recited below.
(§4) 1. […] For PO (oral gavage), DMSO/PEG400 (10:90). Formulations freshly prepared on the day of dosing or prior to dosing. Storage at room temperature.
(§5) 2. Test Species: For Mouse: Male CD1 strain, approximately 6-8 weeks in age, approximately 20-30 g. For Rat: Male Sprague-Dawley strain, approximately 6-8 weeks in age, approximately 200-300 g.
(§6) 3. Dose Level: For IV, 3 mg/kg. For PO, 10 mg/kg.
(§7) 4. Number of animals: 3 per assay.
(§8) 5. PK time points: For IV (plasma): 5 min, 15 min, 1, 2, 4, 6, 8, 24 h post dose. For PO (plasma): 15 min, 30 min, 1, 2, 4, 6, 8, 24 h post dose.
(§9) 6. Blood Sample Collection and Processing. Blood was collected (˜0.2 mL per time point) from jugular vein. Blood of each sample was transferred into plastic micro centrifuge tubes containing anticoagulant of EDTA-K2. Blood samples were centrifuged at 2,000 g for 5 minutes at 4° C. to obtain plasma.
(§10) 7. Samples Analysis: Plasma samples were analyzed using LC/MS/MS method, and pharmacokinetic parameters (half-life: t1/2; oral bioavailability: F; volume of distribution: Vss).

[5] = Pharmacokinetic assay in rat (IV 3 mg/kg, PO 10 mg/kg); type: in vivo; details: male, Sprague-Dawley, plasma, read-out: Rat F (%)
Source text: as §2, §3, §4, §5, §6, §7, §8, §9, §10

[6] = tested on: CFA-induced arthritis; test: Adjuvant-induced arthritis model in rat: Difference of Weight Bearing test (DWB); type: in vivo; details: SD rat, PO 3 days post CFA, compared to dexamethasone
[7] = tested on: CFA-induced arthritis; test: Adjuvant-induced arthritis model in rat: Mechanical Allodynia test (MA); type: in vivo; details: SD rat, PO 3 days post CFA, compared to dexamethasone
[8] = target: MCT1 (Homo sapiens (Human), UniProt P53985); test: Assay 4: MCT1-mediated lactate transport in BT20 breast cancer cells; type: cell-based
Chain of MCT1 (P53985 whole entry): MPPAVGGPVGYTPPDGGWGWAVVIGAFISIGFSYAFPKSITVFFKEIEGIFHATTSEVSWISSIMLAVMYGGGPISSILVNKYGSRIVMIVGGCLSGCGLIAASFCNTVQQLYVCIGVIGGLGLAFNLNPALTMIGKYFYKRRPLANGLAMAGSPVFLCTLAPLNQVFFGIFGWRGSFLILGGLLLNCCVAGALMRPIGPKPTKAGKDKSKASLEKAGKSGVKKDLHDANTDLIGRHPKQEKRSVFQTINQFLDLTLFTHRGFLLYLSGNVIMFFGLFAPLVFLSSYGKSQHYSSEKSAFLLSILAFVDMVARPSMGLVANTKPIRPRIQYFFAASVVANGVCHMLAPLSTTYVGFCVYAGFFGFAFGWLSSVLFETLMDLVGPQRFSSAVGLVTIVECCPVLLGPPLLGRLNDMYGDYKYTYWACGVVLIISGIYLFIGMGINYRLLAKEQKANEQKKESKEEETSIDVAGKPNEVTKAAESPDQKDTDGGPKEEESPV
Chain of MCT1 (P35613 140-385 partner): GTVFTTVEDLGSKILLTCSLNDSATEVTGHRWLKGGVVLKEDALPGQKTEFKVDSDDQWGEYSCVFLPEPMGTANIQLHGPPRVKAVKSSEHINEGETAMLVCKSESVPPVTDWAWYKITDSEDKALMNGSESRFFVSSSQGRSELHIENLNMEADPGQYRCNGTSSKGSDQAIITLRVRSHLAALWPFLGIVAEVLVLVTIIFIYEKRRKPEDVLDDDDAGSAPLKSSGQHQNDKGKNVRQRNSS
Protocol: (§11) Preparing BCECF-Loaded Cells
(§12) 10 µL of a 30 mM DMSO stock of BCECF-AM ester (Life Technologies) is added and the cells are incubated at 37° C. for 5 min. The cells are pelleted (300 g, 5 min), washed once with 1 mL Tyrode's Solution, pH 7.4, re-pelleted (300 g, 5 min), and resuspended in 1 mL Tyrode's Solution, pH 7.4.
Assay 4: MCT1-Mediated Lactate Transport in BT20 Breast Cancer Cells.
Preparation of BCECF loaded cells are as described for Assay 1. Lactate transport assay is as described for Assay 1, except 10 mM L-lactate (rather than 50 mM) is added.

[9] = target: MCT4 (Homo sapiens (Human), UniProt O15427); test: Assay 3: MCT4-mediated lactate transport in MDA-MB-231 breast cancer cells; type: cell-based; details: MDA-MB-231 cells
Chain of MCT4 (O15427 whole entry, looked up): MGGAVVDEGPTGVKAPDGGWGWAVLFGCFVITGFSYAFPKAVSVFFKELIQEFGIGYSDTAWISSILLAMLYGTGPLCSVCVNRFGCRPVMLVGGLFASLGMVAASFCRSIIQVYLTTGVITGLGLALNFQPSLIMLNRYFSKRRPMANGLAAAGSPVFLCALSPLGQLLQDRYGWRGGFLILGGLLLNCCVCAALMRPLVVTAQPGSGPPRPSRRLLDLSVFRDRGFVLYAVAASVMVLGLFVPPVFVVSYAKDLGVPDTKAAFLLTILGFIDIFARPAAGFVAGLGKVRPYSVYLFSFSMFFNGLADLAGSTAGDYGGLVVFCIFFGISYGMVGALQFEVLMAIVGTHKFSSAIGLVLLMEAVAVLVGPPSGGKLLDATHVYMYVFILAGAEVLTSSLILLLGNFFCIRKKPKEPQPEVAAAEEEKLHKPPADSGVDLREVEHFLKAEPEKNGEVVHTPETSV
Chain of MCT4 (P35613 whole entry partner, looked up): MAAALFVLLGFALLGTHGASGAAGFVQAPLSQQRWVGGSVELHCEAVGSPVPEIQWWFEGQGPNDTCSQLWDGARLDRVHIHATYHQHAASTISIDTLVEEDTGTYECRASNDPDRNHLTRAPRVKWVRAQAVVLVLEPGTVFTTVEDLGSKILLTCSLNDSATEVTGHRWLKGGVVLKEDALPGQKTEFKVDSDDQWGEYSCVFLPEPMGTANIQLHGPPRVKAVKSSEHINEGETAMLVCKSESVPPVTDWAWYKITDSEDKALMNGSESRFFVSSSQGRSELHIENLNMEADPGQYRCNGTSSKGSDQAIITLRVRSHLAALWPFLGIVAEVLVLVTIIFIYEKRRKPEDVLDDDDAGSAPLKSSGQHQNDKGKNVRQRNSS
Protocol: as §11, §12
MCT4 activity may be assessed by monitoring the intracellular pH change that accompanies lactate/proton symport, using the pH-sensitive fluorescent dye 2′,7′-bis-(carboxyethyl)-5(6)-carboxyfluorescein (BCECF), in a manner similar to that previously reported for MCT1 and MCT4. The following is an exemplary procedure for assaying MCT4 activity of the compounds of Formula (I).

| Human microsome % 60 min [1] [%] | Rat microsome % 60 min [2] [%] | Mouse microsome % 60 min [3] [%] | bioavailability [4] [%] | bioavailability [5] [%] | IC50 ([8]; lactate transport (Table 26)) [nM] | IC50 ([8]; lactate transport (Table 27)) [nM] | Human microsome t1/2, min ([1]; in vitro t1/2) | IC50 [9] [nM] | Mouse microsome t1/2, min [3] | Rat microsome t1/2, min ([2]; in vitro t1/2) | SMILES | Difference in Weight Bearing, Minimal Efficacious Dose [6] [mg/kg] | Mechanical Allodynia (Von Frey), Minimal Efficacious Dose [7] [mg/kg] |
| --- | --- | --- | --- | --- | --- | --- | --- | --- | --- | --- | --- | --- | --- |
| 99 | 94 | 86 | 100 | 84 |  |  |  |  |  |  | CC(C)(OCc1cc(-c2cccc(OC3CC3)c2)n(-c2ccccc2Cl)n1)C(=O)O [Example 110, 2-([1-(2-Chlorophenyl)-5-(3-cyclo-propoxyphenyl)-1H-pyrazol-3-yl]methoxy)-2-methylpropanoic acid] | 10 | 10 |
| 64 | 69 | 81 | 100 | 100 |  |  |  |  |  |  | CCn1ncc2ccc(-c3cc(COC(C)(C)C(=O)O)nn3-c3ccccc3N3CCCC3)cc21 [Example 229, 2-([5-(1-ethyl-1H-indazol-6-yl)-1-[2-(pyrrolidin-1-yl)phenyl]-1H-pyrazol-3-yl]methoxy)-2-methylpropanoic acid] | 3 | 3 |
|  | 86 |  | 100 | 29 |  |  | ∞ |  |  |  | CCn1ncc2ccc(-c3cc(CO[C@](C)(CC)C(=O)O)nn3Cc3ccccc3Cl)cc21 [Example 220, (2R)-2-([1-[(2-chlorophenyl)methyl]-5-(1-ethyl-1H-indazol-6-yl)-1H-pyrazol-3-yl]methoxy)-2-methylbutanoic acid] | 3 | 3 |
|  |  |  | 77 | 57 |  |  |  |  |  |  | CCn1ncc2ccc(-c3cc(CO[C@](C)(CC)C(=O)O)nn3-c3ccccc3N3CCCC3)cc21 [Example 268, (2R)-2-([5-(1-ethyl-1H-indazol-6-yl)-1-[2-(pyrrolidin-1-yl)phenyl]-1H-pyrazol-3-yl]methoxy)-2-methylbutanoic acid] | 1 | 1 |

Further lines, the molecule ahead of its results:

| SMILES | Human microsome % 60 min [1] [%] | Rat microsome % 60 min [2] [%] | Mouse microsome % 60 min [3] [%] | bioavailability [4] [%] | bioavailability [5] [%] | IC50 ([8]; lactate transport (Table 26)) [nM] | IC50 ([8]; lactate transport (Table 27)) [nM] | Human microsome t1/2, min ([1]; in vitro t1/2) | IC50 [9] [nM] | Mouse microsome t1/2, min [3] | Rat microsome t1/2, min ([2]; in vitro t1/2) | Difference in Weight Bearing, Minimal Efficacious Dose [6] [mg/kg] | Mechanical Allodynia (Von Frey), Minimal Efficacious Dose [7] [mg/kg] |
| --- | --- | --- | --- | --- | --- | --- | --- | --- | --- | --- | --- | --- | --- |
| CC(C)(OCc1cc(-c2cccc(OC3CC3)c2)n(-c2ccccc2N2CCC2)n1)C(=O)O [Example 232, 2-([1-[2-(Azetidin-1-yl)phenyl]-5-(3-cyclopropoxyphenyl)-1H-pyrazol-3-yl]-methoxy)-2-methylpropanoic acid] | 65 | 50 | 59 | 56 | 52 |  |  |  |  |  |  | 1 | 1 |
| COc1cccc(-c2cc(COC(C)(C)C(=O)O)nn2Cc2ccccc2Cl)c1 [Example 14, 2-([1-[(2-Chlorophenyl)methyl]-5-(3-methoxyphenyl)1H-pyrazol-3-yl]methoxy)-2-methylpropanoic acid] | 82 |  | 95 | 100 | 64 | > 100000 | > 100000 |  |  |  |  | 30 | 30 |
| CCCn1ncc2ccc(-c3cc(COC(C)(C)C(=O)O)nn3-c3ccccc3N3CCCC3)cc21 [Example 250, 2-Methyl-2-([5-(1-propyl-1H-indazol-6-yl)-1-[2-(pyrrolidin-1-yl)phenyl]-1H-pyrazol-3-yl]methoxy]propanoic acid] |  |  |  |  |  |  | 41000 |  | 1.3 |  |  |  |  |
| CCn1ncc2ccc(-c3cc(COC(C)(C)C(=O)O)nn3Cc3ccccc3Cl)cc21 [Example 150, 2-([1-[(2-Chlorophenyl)methyl]-5-(1-ethyl-1H-indazol-6-yl)-1H-pyrazol-3-yl]-methoxy)-2-methylpropanoic Acid] | 90 | 98 |  | 89 | 43 |  |  |  |  | ∞ |  | 10 | 10 |
| CC(C)(OCc1cc(-c2cc(OC3CC3)cs2)n(Cc2ccccc2Cl)n1)C(=O)O [Example 130, 2-([1-[(2-Chlorophenyl)methyl]-5-(4-cyclopropoxythien-2-yl)-1H-pyrazol-3-yl]methoxy)-2-methylpropanoic acid] |  |  |  |  |  |  | 55 |  | 98 |  |  |  |  |
| CC(C)COc1cccc(-c2cc(COC(C)(C)C(=O)O)nn2-c2cccc3cnn(C)c23)c1 [Example 170, 2-methyl-2-([1-(1-methyl-1H-indazol-7-yl)-5-[3-(2-methylpropoxy)phenyl]-1H-pyrazol-3-yl]methoxy]propanoic acid] | 87 | 95 | 99 | 100 | 18 |  |  |  |  | ∞ | ∞ | 3 | 3 |
| CC[C@@](C)(OCc1cc(-c2cccc(OC3CC3)c2)n(-c2ccccc2N2CCC2)n1)C(=O)O [Example 266] |  |  |  | 100 | 100 |  |  |  |  |  |  | 3 | 3 |

From patent US11292767B2, “Heterocyclic inhibitors of MCT4” (Vettore, LLC, priority 2016, dated 2022)
